Patent publication US20030064413A1, “Compositions and methods useful in avidity therapy” (priority 2000, published 2003)
Entries after “also recorded” stand apart in the source; their conditions may differ. Peptide text beside a SMILES is read from it.

Experiments:
[1] = test system: CD8+ T cells propagated from islets of acutely diabetic NOD mice; assay: Killing of peptide-pulsed RMA-SKd cells by islet-derived CD8+ T cell lines and clones; assay type: cell-based
Excerpt: To confirm that the islet associated CD8^+ T cells of most NOD mice contain clones capable of recognizing the NRP/Kd complex, we generated 31 CD8^+ CTL clones from islets of 9 NOD mice, and tested the clones' ability to kill NRP- or TUM-pulsed RMA-SKd cells. Of the 31 clones tested, 14 (45%) were cytotoxic against NRP-, but not TUM-pulsed, RMA-SKd targets (FIGS. 7B and C).

[2] = test system: 8.3-TCR on 8.3-CD8+ T cells; assay: Peptide/MHC tetramer binding to 8.3-CD8+ T cells; parameters: species or system mouse (8.3-TCRαβ-transgenic NOD)
Excerpt: (§1) To confirm that these peptides were recognized with different avidity by 8.3-CD8^+ T cells, we produced and tested peptide/MHC tetramers as previously described (39). A tetramer is preferably used in avidity determinations because tetramers bind more strongly than the corresponding monomers, while maintaining the same relative avidities when a plurality of ligands are compared. […] These peptides were recognized with different avidity not only by 8.3-CD8^+ T cells, but also by the polyclonal NRP-reactive CD8^+ T cells that can be propagated from the pancreatic islets of 20 wk-old NOD mice.
(§2) In order to follow the accumulation of antigen-specific CD8^+ T cells in islets of pre-diabetic NOD mice, we generated H-2Kd tetramers containing the peptides NRP, NRP-A7, TUM or INS [LYLVCGERG; an insulin-derived peptide recognized by islet-associated T cells from young NOD mice (38)]. The NRP and NRP-A7 tetramers stained virtually all the splenic CD8^+ T cells from 8.3-TCRαβ-transgenic NOD mice, but <1% of the splenic CD8^+ T cells from NOD mice. The INS tetramer stained the INS-reactive CTL clone G9C8 (38), but neither this tetramer nor the negative control tetramer (TUM) stained the splenic CD8^+ T cells from NOD or 8.3-TCRαβ-transgenic NOD mice (data not shown).
To confirm that these peptides were recognized with different avidity by 8.3-CD8^+ T cells, we produced and tested peptide/MHC tetramers. […] These peptides were recognized with different avidity not only by 8.3-CD8^+ T cells, but also by the polyclonal NRP-reactive CD8^+ T cells that can be propagated from the pancreatic islets of 20 wk-old NOD mice.

[3] = test system: NOD mice; assay: Development of spontaneous autoimmune diabetes in peptide-treated NOD female mice; assay type: in vivo
Excerpt: To test whether the hypothesis could in fact predict the different outcomes outlined in Table I, we treated groups of NOD female mice with repeated injections of NRP-A4, NRP-I4 and NRP-V7, and followed the mice for development of spontaneous autoimmune diabetes. T cells were also harvested from the treated mice and tested with various ligand/MHC tetramers to determine the impact of the treatment on T cell populations. […] Since these cells have higher diabetogenic potential (see above), it is likely that their accumulation into islets is the single mechanism that accounts for the accelerated onset of diabetes seen in NRP-I4-treated mice. […]
The hypothesis put forth above predicted that, in vivo, each of these peptides would trigger T cells differently depending on the T cells' avidity for NRP. This is summarized in Table I. To test whether the hypothesis could in fact predict the different outcomes outlined in Table I, we treated groups of NOD female mice with repeated injections of NRP-A4, NRP-I4 and NRP-V7, and followed the mice for development of spontaneous autoimmune diabetes. […] Since these cells have higher diabetogenic potential (see above), it is likely that their accumulation into islets is the single mechanism that accounts for the accelerated onset of diabetes seen in NRP-I4-treated mice.
To test the effect of dosage of the peptide ligands on T cell clonal delection or expansion, we treated groups of NOD female mice with repeated injections of “low” or “high” doses of TUM (negative control), NRP, NRP-A7, NRP-A4, NRP-I4 and NRP-V7. Low concentrations of peptide were prepared by resuspending 100 mg of dry peptide in PBS in the absence of acids. The peptides in these preparations, which were also used in previous Examples, are aggregated, and the effective concentrations were low. Soluble, high concentrations of peptide were prepared by diluting 100 mg of soluble peptide (solubilized in the presence of acid) in PBS. The mice were followed for development of spontaneous autoimmune diabetes.

[4] = test system: islet-derived CD8+ T cells; assay: Peptide/H-2Kd tetramer staining of islet-derived CD8+ T cells; assay type: binding, NOD mice
Excerpt: as §1
Since tetramer-reactive cells represent a very small fraction of all the islet-associated T cells, we analyzed the presence of tetramer-reactive clonotypes within the cell population that has undergone antigen-driven activation and thus is likely to contain autoreactive specificities. Islets from non-diabetic 5, 9, 15 and 20 wk-old NOD mice were cultured in the presence of rIL-2 for 6-7 d, to selectively expand IL-2R-positive T cells [˜10% of all the islet-associated CD8^+ T cells (30)]. There were age-dependent increases in the number of T cells recovered from NOD islets and in the % of CD8^+ T cells contained within lines. […]

[5] = test system: naïve or activated 8.3-CD8+ T cells; assay: Functional testing of NRP mimics (proliferation, cytokine secretion, cytotoxicity, antagonism); assay type: cell-based, mouse (8.3-TCRαβ-transgenic NOD)
Excerpt: To test the validity of this hypothesis, we produced mimics of NRP capable of engaging the 8.3-TCR (a TCR that is representative of the TCRs used by NRP-reactive CD8^+ T cells in the NOD mouse) with very low or very high affinity (when compared to NRP and NRP-A7). This was done by generating numerous single amino acid mutants of NRP (NRP mimics) and by testing the ability of each mutant to elicit proliferation, cytokine secretion and cytotoxicity of naïve or activated 8.3-CD8^+ T cells. Some of the NRP mimics that were unable to elicit the activation of naïve 8.3-CD8^+ T cells were tested for antagonism. Antagonist mimics are unable to elicit the functional activity of T cells but antagonized the agonistic activity of functional mimics (i.e. NRP and NRP-A7). […] Of these, NRP-A4 was the most powerful and was chosen for further experimentation. […] FIG. 15 compares the agonistic properties of all these peptides on naïve 8.3-CD8^+ T cells.
To test the validity of this hypothesis, we produced mimics of NRP capable of engaging the 8.3-TCR (a TCR that is representative of the TCRs used by NRP-reactive CD8^+ T cells in the NOD mouse) with very low or very high affinity (when compared to NRP and NRP-A7). This was done by generating numerous single amino acid mutants of NRP (NRP mimics) and by testing the ability of each mutant to elicit proliferation, cytokine secretion and cytotoxicity of naïve or activated 8.3-CD8^+ T cells. Some of the NRP mimics that were unable to elicit the activation of naïve 8.3-CD8^+ T cells were tested for antagonism. Antagonist mimics are unable to elicit the functional activity of T cells but antagonized the agonistic activity of functional mimics (i.e. NRP and NRP-A7). […] Peptide-induced responses are color-coded from low, medium, […], high and very high (blue, yellow, green and red, respectively). The data are representative of 3 different experiments.
Of these, NRP-A4 was the most powerful and was chosen for further experimentation. […] FIG. 15 compares the agonistic properties of all these peptides on naïve 8.3-CD8^+ T cells.

[6] = test system: NRP-A7-reactive CD8+ T cells; assay: Islet-associated CD8+ T cells of peptide-treated NOD mice (tetramer staining, binding kinetics, cytotoxicity); assay type: in vivo
Excerpt: To test whether the hypothesis could in fact predict the different outcomes outlined in Table I, we treated groups of NOD female mice with repeated injections of NRP-A4, NRP-I4 and NRP-V7, and followed the mice for development of spontaneous autoimmune diabetes. T cells were also harvested from the treated mice and tested with various ligand/MHC tetramers to determine the impact of the treatment on T cell populations. […] Since these cells have higher diabetogenic potential (see above), it is likely that their accumulation into islets is the single mechanism that accounts for the accelerated onset of diabetes seen in NRP-I4-treated mice.
To ascertain whether the NRP-A7 treatment had induced the deletion of NRP-A7-reactive CD8^+ T cells, we examined islets of peptide-treated, non-diabetic 32 wk-old mice for the presence of this T cell population. […] To determine whether this resulted from the absence of clonotypes bearing high affinity TCRs for NRP-A7, we compared the kinetics of NRP-A7 tetramer binding to CD8^+ T cells derived from peptide-treated mice. […] Since treatment with NRP-A7 also halted the progression from benign to pernicious islet inflammation, we concluded that development of IDDM in NOD mice requires the avidity maturation of the NRP-A7-reactive CD8^+ T cell population.
The effect of the peptides on T cell populations was also determined.

[7] = test system: 8.3-CD8+ T cells; assay: Repeated peptide administration to 8.3-TCRαβ-transgenic NOD mice; assay type: in vivo; details: repeated administration via i.p. and f.p. routes; unpublished data
[8] = test system: INS-reactive CTL clone G9C8; assay: Tetramer staining of CTL clone G9C8; assay type: binding; details: H-2Kd tetramer
Excerpt: as §2

CC(C)C[C@H](NC(=O)[C@H](Cc1ccccc1)NC(=O)[C@H](Cc1c[nH]c2ccccc12)NC(=O)[C@H](CC(N)=O)NC(=O)[C@H](C)NC(=O)[C@H](CCCCN)NC(=O)[C@H](CC(N)=O)NC(=O)[C@H](Cc1ccc(O)cc1)NC(=O)[C@@H](N)CCCCN)C(=O)O [NRP, KYNKANWFL] (H-KYNKANWFL-OH; N-terminus and C-terminus assumed)
islet-derived CD8+ CTL clones cytotoxic against peptide-pulsed RMA-SKd targets ([1]; 14 of 31 clones from 9 NOD mice): 45%

KYNKANAFL [NRP-A7]
avidity class of the peptide [2]: high avidity | Avidity (of Function/Avidity) ([2]; Table II): high | avidity of tetramer binding to 8.3-CD8+ T cells ([2]; peptide/MHC tetramer, proportional to fluorescence intensity of stained T cells): increased avidity | splenic CD8+ T cells stained by tetramer ([2]; splenic CD8+ T cells from 8.3-TCRαβ-transgenic NOD mice): virtually all | Action (high dose) ([3]; Table II, effect on diabetes, high dose, repeated injections): No effect | Action (low dose) ([3]; Table II, effect on diabetes, low dose, repeated injections): protective | effect on diabetes at high dose/concentration ([3]; high concentration (acid-solubilized peptide in PBS), repeated injections): no effect; also recorded: rather ineffective; also recorded: did not efficiently protect the mice from diabetes | effect on diabetes at low dose/concentration ([3]; low concentration (aggregated peptide in PBS), repeated injections): anti-diabetogenic; also recorded: significant protective effect; also recorded: diabetes resistance | development of IDDM/diabetes in treated NOD mice ([3]; repeated injections (100 μg in PBS i.p. in Example 6), low dosage according to b141): highly protected | size of the tetramer-reactive CD8+ T cell population in islets ([4]; by 15 wk, islets cultured with rIL-2 6-7 d): ~18% | number of islet-derived CD8+ T cells bound by tetramer, comparative ([4]; islets of 20 wk-old NOD mice): more cells bound the NRP-A7 than the NRP tetramers | functional class of the peptide on 8.3-CD8+ T cells [5]: super-agonist | Function ([5]; Table I): superagonist | Function (of Function/Avidity) ([5]; Table II): superagonist | agonistic/antagonistic activity, comparative statement ([5]; naive 8.3-CD8+ T cells): superior agonistic properties | cytotoxicity of islet-derived CD8+ T cells of treated mice ([6]; NRP-A7-pulsed RMA-SKd targets): less cytotoxic to NRP-A7-pulsed, RMA-SKd targets than those derived from NRP- or control peptide-treated mice | insulin 15-23-reactive CD8+ T cells in islets of treated mice ([6]; b198: high concentration NRP-A7, low and high concentrations NRP-V7): significantly increased percentages of insulin 15-23 tetramer-reactive CD8^+ T-cells | effect on NRP-A7-reactive T cells in islets, high concentration ([6]; high concentration): nearly complete deletion of all NRP-A7-reactive cells | effect on NRP-A7-reactive T cells in islets, low concentration ([6]; low concentration): fostered the accumulation of low avidity NRP-A7-reactive T-cells in islets | effect of treatment on high/low avidity NRP-reactive CD8+ T cell subpopulations (conclusion) ([6]; repeated injections): blunted the avidity maturation of the NRP-A7-reactive CD8^+ T cell population; also recorded: promoted the expansion of the low avidity T cell subpopulation; also recorded: selectively eliminated those NRP-A7-reactive CD8^+ T cells expressing high affinity TCRs for NRP-A7 | NRP/NRP-A7 tetramer-reactive CD8+ T cells in islets of treated mice ([6]; repeated injections, low dosage according to b141): greater numbers of NRP-A7 tetramer-reactive cells than control peptide-treated mice | islet-associated CD8+ T cell clones recognizing the peptide ([1]; reference 37): 45% | islet-associated CD8+ T cell lines recognizing the peptide ([1]; reference 37): 87% | effect on 8.3-CD8+ T cells [7]: induced the deletion of 8.3-CD8^+ T cells

LYLVCGERG [INS, insulin-derived peptide recognized by islet-associated T cells from young NOD mice]
tetramer staining of CTL clone G9C8 [8]: stained
